Data as given in PubChem BioAssay (NCI).
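Five concentrations, 48 hours, 96-well plates. The concentration for full growth arrest is given as TGI.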

Key:
Assay in all cases: NCI anticancer screen, dose series, 48 h
786-0 renal = test system: 786-0 renal
CCRF-CEM leukemia = test system: CCRF-CEM leukemia
IGROV1 ovarian = test system: IGROV1 ovarian
KM12 colon = test system: KM12 colon
M14 melanoma = test system: M14 melanoma
NCI-H460 lung = test system: NCI-H460 lung
OVCAR-5 ovarian = test system: OVCAR-5 ovarian
RXF 393 renal = test system: RXF 393 renal
SF-268 CNS = test system: SF-268 CNS
SK-MEL-2 melanoma = test system: SK-MEL-2 melanoma
SK-OV-3 ovarian = test system: SK-OV-3 ovarian
UO-31 renal = test system: UO-31 renal

SMILES | TGI (786-0 renal) | TGI (CCRF-CEM leukemia) | TGI (IGROV1 ovarian) | TGI (KM12 colon) | TGI (M14 melanoma) | TGI (NCI-H460 lung) | TGI (OVCAR-5 ovarian) | TGI (RXF 393 renal) | TGI (SF-268 CNS) | TGI (SK-MEL-2 melanoma) | TGI (SK-OV-3 ovarian) | TGI (UO-31 renal)
O=[N+]([O-])c1sc2ccc(Cl)cc2c1Nc1ccc(Cl)cc1 | > 100 µM | > 100 µM | > 100 µM | > 100 µM | > 100 µM | > 100 µM | > 100 µM | > 100 µM | > 100 µM | > 100 µM | > 100 µM | > 100 µM
O=C(CN(c1ccc(S(=O)(=O)O)cc1)c1ccc(S(=O)(=O)O)cc1)Nn1cnc2ccc(S(=O)(=O)N(c3ccc(S(=O)(=O)O)cc3)c3ccc(S(=O)(=O)O)cc3)cc2c1=O | > 100 µM | > 100 µM | > 100 µM | > 100 µM | > 100 µM | > 100 µM | > 100 µM | > 100 µM | > 100 µM | > 100 µM | > 100 µM | > 100 µM
CCN(CC)CCNc1ccc2nnn3c4ccccc4c(=O)c1c23 | 20.7 µM | 18.7 µM | 58.8 µM | 17.3 µM | 15.6 µM | 6.27 µM | 14.4 µM | 18.5 µM | 19.2 µM | 14 µM | 62.5 µM | 29.3 µM
COC(=O)[C@@H]1Cc2cc(O)c(O)cc2C2(CCN(C)CC2)O1 | > 10 µM | > 10 µM | > 10 µM | > 10 µM | > 10 µM | > 10 µM | > 10 µM | > 10 µM | > 10 µM | > 10 µM | > 10 µM | 
CCN(CC)C(=S)SS(=O)(=O)c1ccccc1[N+](=O)[O-] | 33.2 µM | > 100 µM | > 100 µM | > 50 µM | > 48.5 µM | > 100 µM | > 100 µM | 45.4 µM | > 100 µM | > 100 µM | > 100 µM | 31.2 µM
C[C@]12CC/C(=N\OCCN3CCCCC3)C=C1CCC1C2CC[C@@]2(C)C1CC[C@]2(C)O (stereo partly drawn) | 17.3 µM | 11.3 µM | 35.5 µM | 26.6 µM | 37.7 µM | 17.5 µM | 94.4 µM | 56.5 µM | 31 µM | 28.8 µM | 35 µM | 23.2 µM
Cc1cc(C)n(CN(Cn2nc(C)cc2C)c2ccccc2)n1 | 48.5 µM | 83.9 µM | 95.2 µM | 42.6 µM | 31.1 µM | > 100 µM | 69.6 µM | 38.9 µM | 52.6 µM | 44.6 µM | > 100 µM | 78.5 µM
O=C(CCOS(=O)(=O)CF)N1CCN(C(=O)CCOS(=O)(=O)CF)CC1 | > 100 µM | > 87.9 µM | > 100 µM | > 100 µM | > 100 µM | > 100 µM | > 100 µM | > 100 µM | > 100 µM | > 100 µM | > 82.5 µM | > 100 µM
Oc1ccc(-c2cn3cc(C(F)(F)F)ccc3n2)cc1 | > 100 µM | > 100 µM | > 100 µM | > 100 µM | > 100 µM | > 100 µM | > 100 µM | > 100 µM | > 100 µM | > 100 µM | > 100 µM | > 100 µM
CC(=O)Oc1c(C)c2c(c3ccccc13)OC(C)(C)C2 | 34.3 µM | > 100 µM | 30.9 µM | 27.6 µM | 30.9 µM | 34.2 µM | 34.4 µM | 35.9 µM | 28.8 µM | 34 µM | 66.3 µM | 33.1 µM
CC(=O)N=C1N(/C=C2\C(=O)Oc3ccccc3C2=O)C(=O)/C(=C/c2ccccc2Cl)N1C | > 100 µM | > 100 µM | > 100 µM | > 100 µM | > 100 µM | > 100 µM | > 100 µM | > 100 µM | > 100 µM | > 100 µM | > 100 µM | 
O=C1C(Cl)=C(N2CCN(c3ccccn3)CC2)C(=O)c2ncccc21 | 3.12 µM | 3.11 µM | 6.63 µM | 12.2 µM | 3 µM | 13.4 µM | 21.8 µM | 3.7 µM | 8.17 µM | 4.02 µM | 20.6 µM | 3.3 µM
CCOC(=O)c1[nH]c2nc(SC)nc(Nc3ccccc3Cl)c2c1N | 46 µM | 46.8 µM | 86.2 µM | > 100 µM | > 100 µM | 41.1 µM | > 100 µM | 30.2 µM | 60.9 µM | > 100 µM | 56.7 µM | 42.7 µM
CCCCCCCCCc1c(O)c(O)c(CCCCCCCCC)c(CCCCCCCCC)c1CCCCCCCCC | > 100 µM | 88.6 µM | > 100 µM | > 100 µM | > 100 µM | > 100 µM | > 100 µM | > 100 µM | > 100 µM | > 100 µM | > 100 µM | 
CC(=O)Nc1ccc2cc3[nH]c4cc(NC(C)=O)ccc4c3nc2c1 | > 100 µM | > 100 µM | > 100 µM | > 100 µM | > 100 µM | > 100 µM | > 100 µM | > 100 µM | > 100 µM | > 100 µM | > 100 µM | > 100 µM
COc1ccc(/C=C2/CCS(=O)(=O)c3ccc(C)cc3C2=O)cc1OC | 27.7 µM | 69.8 µM | 22.4 µM | 23 µM | > 100 µM | 25.8 µM | > 100 µM | 29.6 µM | > 100 µM | 60.9 µM | > 100 µM | 20.1 µM
O=[N+]([O-])c1nccn1CCCNCCCn1ccnc1[N+](=O)[O-] | > 100 µM | > 100 µM | > 100 µM | > 100 µM | > 100 µM | > 100 µM | > 100 µM | > 100 µM | > 100 µM | > 100 µM | > 100 µM | > 100 µM
COC(=O)c1cc(C)n(CN(Cc2ccccc2)Cn2nc(C(=O)OC)cc2C)n1 | > 100 µM | > 67.6 µM | > 100 µM | > 100 µM | > 100 µM | > 100 µM | > 100 µM | 98 µM | > 100 µM | > 100 µM | > 100 µM | > 92.1 µM
O=C(N/N=C(/COc1cccc(Cl)c1)N=Cc1cccnc1)c1ccncc1 | > 100 µM | > 100 µM | > 100 µM | > 100 µM | > 100 µM | > 100 µM | > 100 µM | > 100 µM | > 100 µM | > 100 µM | > 100 µM | 
O=C1C(Cl)C(c2cc3cc(Br)ccc3nc2Cl)N1c1c(Cl)cccc1Cl (stereo not drawn) | > 25 µM | 20 µM | > 25 µM | > 25 µM | > 25 µM | > 25 µM | > 25 µM | > 25 µM | > 25 µM | > 25 µM | > 25 µM | 4.5 µM
c1ccc(C2=Nc3cccc4cccc(c34)N2)cc1 | > 61.8 µM | 28.7 µM | > 94.5 µM | > 85.1 µM | > 100 µM | > 100 µM | > 100 µM | 45.6 µM | > 90.6 µM | > 93.1 µM | > 100 µM | > 56.1 µM
COC(=O)c1c2c(cc3c1CC1(Cc4cc5c(cc4C1)CCC5)C3)CCC2 | > 100 µM | > 100 µM | > 100 µM |  | > 100 µM | > 100 µM | > 100 µM | > 100 µM | > 100 µM | > 100 µM | > 100 µM | > 100 µM
COC1(CC[C@H](C)COC2OC(CO)C(O)C(O)C2O)O[C@H]2C[C@H]3[C@@H]4CC=C5C[C@@H](OC6OC(CO)C(O)C(OC7OC(CO)C(O)C(O)C7O)C6OC6OC(C)C(O)C(O)C6O)CC[C@]5(C)[C@H]4CC[C@]3(C)[C@H]2[C@@H]1C (stereo partly drawn) | 5.29 µM | > 32.9 µM | 11.8 µM | 3.91 µM |  | 11.6 µM | > 32.5 µM | 16.3 µM | 15.2 µM | 25.2 µM | 24.5 µM | 4.36 µM
Cc1c(-c2ccccc2)c(C#N)c2nnn(-c3cccc(Cl)c3)c(=O)n12 | 86.6 µM | > 100 µM | > 100 µM | > 100 µM |  | > 100 µM | > 100 µM | > 100 µM | > 100 µM | 67.2 µM | > 100 µM | 
CN(C)c1ccc(C2ON=C(c3ccccc3)N2C23CC4CC(CC(C4)C2)C3)cc1 (stereo not drawn) | > 10 µM | > 10 µM | > 10 µM | > 10 µM | > 10 µM | > 10 µM | > 10 µM | > 10 µM | > 10 µM | > 10 µM | > 10 µM | 
CCOC(=O)N1[C@@H]2CCC[C@@H]2C(=O)[C@@H]2CCC[C@@H]21 | > 100 µM | > 100 µM | > 100 µM | > 100 µM | > 100 µM | > 100 µM | > 100 µM | > 100 µM | > 100 µM | > 100 µM | > 100 µM | 
OC(c1ccccc1)C(F)(F)c1nc2ccccc2o1 (stereo not drawn) | > 100 µM | > 100 µM | > 100 µM | > 100 µM | > 100 µM | > 100 µM |  | > 100 µM | > 100 µM | > 100 µM | > 100 µM | > 100 µM
